Measured values published in doi:10.1101/2024.03.17.584721v1 (bioRxiv, 2024).

Experiments:
HeLa cells = test: Confocal imaging of subcellular localization; format: cell-based, human; conditions: free fluorescein-labelled peptide without LNP, 8 hours, live cell confocal
[1] = In vivo biodistribution of LNP-encapsulated PepTACs; parameters: species or system SKH-1 hairless mice; conditions: Cy5.5-labeled, 5 mg/kg IV, confocal imaging of liver sections
[2] = Encapsulation efficiency of the LNPs; format: physicochemical; conditions: optimized LNP formulation, ^CRPepTAC or peptide ligand alone; Figure 4B

Row | Substance | uptake / subcellular localization (HeLa cells) | PepTAC signal in liver sections after 24 hours [1] | LNP Encapsulation Efficiency, % [2]
1 | IYP^OHAL-Ahx-KDVLSEKEKKLEEYKQKLARV [^CRPepTAC] | no uptake or cellular association | no signal | 
2 | KDVLSEKEKKLEEYKQKLARV [CL] |  |  | 15%
